{"source": "patent US12570612B2", "about": "“Substituted nitrogen heterocyclic compound and anesthetic effect thereof” (priority 2019, dated 2026)", "key": {"[1]": {"test_system": "Sprague-Dawley rats", "assay_type": "in vivo", "conditions": "tail vein"}, "[2]": {"test_system": "circulatory function of rats", "conditions": "rat, in vivo", "method": "First, animal models were established. […] At least one week after surgery, data were recorded.\nFinally, the pharmacological effects, adverse reactions, and behavioral manifestations of the rats were observed and recorded\nAfter data acquisition, the test was stopped."}, "[3]": {"test_system": "Sprague-Dawley rats", "assay_type": "in vivo", "conditions": "tail vein", "remark": "listed apart in the source"}, "[4]": {"test_system": "Sprague-Dawley rats", "test": "animal or person", "assay_type": "in vivo", "conditions": "rats", "excerpt": "Evaluating indicator: The end point of anesthesia: LORR was used as the end point of anesthesia; General anesthesia effect: the disappearance of forepaw righting reflex in rats lasting for 30 seconds is taken as the index of general anesthesia effect; Anesthesia recovery index: the recovery of rat forepaw righting reflex was used as the index of anesthesia recovery."}, "[5]": {"test_system": "Sprague-Dawley rats", "test": "Pharmacological effect and adverse reactions under the equivalent dose (2ED50), Group C compounds", "assay_type": "in vivo", "excerpt": "(§1) Evaluation index: onset time: from the completion of drug injection to the disappearance of forepaw righting reflex in rats; Duration of anesthesia: the time from the disappearance of rat forepaw righting reflex to the recovery of rat forepaw righting reflex; Recovery time of anesthesia: the time from the […] to complete recovery;"}, "[6]": {"test_system": "Sprague-Dawley rats", "test": "Pharmacological effect and adverse reactions under the equivalent dose (2ED50), Group D compounds", "assay_type": "in vivo", "excerpt": "as §1"}, "[7]": {"test_system": "Sprague-Dawley rats", "test": "Continuous infusion at 2 times the MIR for 1 hour, Group B compounds", "assay_type": "in vivo"}, "[8]": {"test_system": "Sprague-Dawley rats", "test": "animal or person", "method": "(§2) Adult male Sprague-Dawley rats (250-300 g) were selected for the experiment. […] The anesthesia effects of the compounds were assessed in rats using a LORR assay and a period >30 s was considered as an indicator of general anesthesia."}, "[9]": {"test_system": "H295R cell line", "test": "Adrenocortical function in vitro test: secretion of cortisol and corticosterone, Group A compounds", "assay_type": "cell-based", "conditions": "H295 cells; for EC50: 0.1-10000 nM, HPLC-MS/MS"}, "[10]": {"test_system": "SD rats", "in_short": "(§3)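 Adult male SD rats (250–350 g) received continuous infusion. Read-outs: time from infusion start to […]; after 1 h infusion, time from stop to return of forepaw turning reflex and to full recovery.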"}, "[11]": {"test_system": "H295R cell line", "test": "Adrenocortical function in vitro test: secretion of cortisol and corticosterone, Group B compounds", "assay_type": "cell-based", "conditions": "H295R cells; for EC50: 0.1-10000 nM, HPLC-MS/MS"}, "[12]": {"test_system": "SD rats", "in_short": "as §3", "remark": "listed apart in the source"}, "[13]": {"test_system": "Sprague-Dawley rats", "test": "Pharmacological characteristics at equivalent doses (2ED50), Group A compounds", "assay_type": "in vivo", "conditions": "2ED50, tail vein"}, "[14]": {"test_system": "Sprague-Dawley rats", "test": "animal or person", "method": "as §2", "remark": "listed apart in the source"}, "[15]": {"test_system": "Sprague-Dawley rats", "method": "Adult male Sprague-Dawley rats with body weight ranging from 250 to 300 gm were selected for continuous infusion test. […] Time to recovery of righting reflex from stopping infusion, and time to fully awake from stopping infusion were recorded."}, "[16]": {"test_system": "Sprague-Dawley rats", "test": "animal or person", "assay_type": "in vivo", "conditions": "rats", "excerpt": "Evaluating indicator: The end point of anesthesia: the disappearance of forepaw righting reflex (lorr) was used as the end point of anesthesia; General anesthesia effect: the disappearance of forepaw righting reflex in rats lasting for 30 seconds is taken as the index of general anesthesia effect; Anesthesia recovery index: the recovery of rat forepaw righting reflex was used as the index of anesthesia recovery.", "remark": "listed apart in the source"}, "[17]": {"conditions": "LORR, up and down method, tail vein, brackets = 95% confidence limit"}, "[18]": {"conditions": "2ED50, tail vein, rats, n=8, unit s"}, "[19]": {"conditions": "equivalent dose (2ED50), number of rats of n = 8"}, "[20]": {"conditions": "equivalent dose (2 × ED50), number of rats of n = 8"}, "[21]": {"conditions": "continuous infusion 2 x MIR 1 hour, rats affected/rats"}, "[22]": {"conditions": "LORR in rats, tail vein, brackets = 95% confidence limit"}, "[23]": {"conditions": "read-out: EC50 (Corticosterone)"}, "[24]": {"conditions": "after 1 hour continuous infusion at 2 times the MIR, SD rats"}, "[25]": {"conditions": "continuous tail vein infusion at 2 times the MIR, SD rats"}}, "note": "Entries after “also recorded” stand apart in the source; their conditions may differ. Where two headings read alike, the source gives them in different places. Marks after values point to notes of the source that are not given here."}
{"compound": "COC(=O)C1(OC(=O)c2cncn2[C@H](C)c2ccccc2)CC1", "note": "[CPMM, cyclopropyl methoxycarbonyl metamidate, reference compound]", "values": [{"measurement": "Minimal lethal dose", "setting": "[1]", "value": 20.6, "unit": "mg/kg"}, {"measurement": "inhibitory effect on the circulatory function (MAP, HR)", "setting": "[2]", "value": "almost no inhibitory effect on the circulatory function"}, {"measurement": "Minimal lethal dose", "setting": "[3]", "value": 20.6, "unit": "mg/kg"}, {"measurement": "ED50", "setting": "[4]; [17]", "value": "0.49(0.45-0.53)* mg/kg"}, {"measurement": "Approximate therapeutic index", "setting": "[4]", "value": 42.0}, {"measurement": "Righting reflex duration", "setting": "[5]; 2ED50, tail vein, rats, n=8", "value": "2.71 ± 0.97", "unit": "min"}, {"measurement": "Sedation duration", "setting": "[5]; 2ED50, tail vein, rats, n=8", "value": "8.48 ± 2.58", "unit": "min"}, {"measurement": "Onset time", "setting": "[5]; [18]", "value": "<30", "unit": "s"}, {"measurement": "Adverse reaction: Convulsions", "setting": "[5]; [19]", "value": 0}, {"measurement": "Adverse reaction: Cough, broken-winded", "setting": "[5]; [19]", "value": 0}, {"measurement": "Adverse reaction: Euphoria", "setting": "[5]; [19]", "value": 0}, {"measurement": "Adverse reaction: Red urine", "setting": "[5]; [19]", "value": 8}, {"measurement": "Adverse reaction: Slower breathing, Tetany convulsion", "setting": "[5]; [19]", "value": 3}, {"measurement": "Adverse reaction: Systemic stiffness, Convulsions, Opisthotonus", "setting": "[5]; [19]", "value": 0}, {"measurement": "Adverse reaction: Tongue stretching", "setting": "[5]; [19]", "value": 4}, {"measurement": "Adverse reaction: Tremor", "setting": "[5]; [19]", "value": 5}, {"measurement": "Adverse reaction: the four limbs rigidity", "setting": "[5]; [19]", "value": 4}, {"measurement": "Righting reflex duration", "setting": "[6]; 2ED50, tail vein, rats, n=8", "value": "2.71 ± 0.97", "unit": "min"}, {"measurement": "Sedation duration", "setting": "[6]; 2ED50, tail vein, rats, n=8", "value": "8.48 ± 2.58", "unit": "min"}, {"measurement": "Onset time", "setting": "[6]; [18]", "value": "<30", "unit": "s"}, {"measurement": "Adverse reaction: Convulsions", "setting": "[6]; [20]", "value": 0}, {"measurement": "Adverse reaction: Cough, broken-winded", "setting": "[6]; [20]", "value": 0}, {"measurement": "Adverse reaction: Euphoria", "setting": "[6]; [20]", "value": 0}, {"measurement": "Adverse reaction: Four limbs rigidity", "setting": "[6]; [20]", "value": 2}, {"measurement": "Adverse reaction: Slower breathing, Tetany convulsion", "setting": "[6]; [20]", "value": 0}, {"measurement": "Adverse reaction: Systemic stiffness, Convulsions, Opisthotonus", "setting": "[6]; [20]", "value": 0}, {"measurement": "Adverse reaction: Tongue stretching", "setting": "[6]; [20]", "value": 4}, {"measurement": "Adverse reaction: Tremor", "setting": "[6]; [20]", "value": 2}, {"measurement": "Recovery time after stopping infusion", "setting": "[7]; after 1 hour continuous infusion at 2 times the MIR, rats", "value": "7 to 8", "unit": "min"}, {"measurement": "Types and incidence of adverse reactions: Convulsions", "setting": "[7]; [21]", "value": "Convulsions (3/6), Tremor"}, {"measurement": "Types and incidence of adverse reactions: Myoclonus", "setting": "[7]; [21]", "value": "(5/6), Myoclonus (5/6)"}, {"measurement": "Types and incidence of adverse reactions: Tremor", "setting": "[7]; [21]", "value": "(5/6), Myoclonus (5/6)"}, {"measurement": "Onset time", "setting": "[7]; continuous tail vein infusion at 2 times the MIR, emulsion, rats", "value": "3 to 4", "unit": "min"}, {"measurement": "ED50", "setting": "[8]; [22]", "value": "0.78(0.74-0.82)* mg/kg"}, {"measurement": "Approximate therapeutic index", "setting": "[8]; rats", "value": ">10"}, {"measurement": "Minimal lethal dose", "setting": "[8]; rats", "value": ">7.8", "unit": "mg/kg"}, {"measurement": "Corticosterone as an indicator to determine the presence of inhibition", "setting": "[9]", "value": "1 (Mild inhibition (using CPMM as a control))"}, {"measurement": "Cortisol as an indicator to determine the presence of inhibition", "setting": "[9]", "value": "1 (Mild inhibition (using CPMM as a control))"}, {"measurement": "EC50", "setting": "[9]; [23]", "value": "> 100", "unit": "nM"}, {"measurement": "EC50", "setting": "[9]; read-out: EC50 (Cortisol)", "value": "> 10", "unit": "nM"}, {"measurement": "After the infusion is stopped: Righting reflex recovery time", "setting": "[10]; [24]", "value": "8 to 10", "unit": "min"}, {"measurement": "Recovery time after stopping infusion", "setting": "[10]; [24]", "value": "10 to 15", "unit": "min"}, {"measurement": "Types and incidence of adverse reactions: Hindlimb rigidity", "setting": "[10]; [21]", "value": "Hindlimb rigidity(4/6)"}, {"measurement": "Types and incidence of adverse reactions: Red urine", "setting": "[10]; [21]", "value": "6/6"}, {"measurement": "Types and incidence of adverse reactions: Tremor", "setting": "[10]; [21]", "value": "4/6"}, {"measurement": "Sedation onset time", "setting": "[10]; [25]", "value": "<5", "unit": "min"}, {"measurement": "Corticosterone as an indicator to determine the presence of inhibition", "setting": "[11]", "value": "1 (Mild inhibition (using CPMM as a control))"}, {"measurement": "Cortisol as an indicator to determine the presence of inhibition", "setting": "[11]", "value": "1 (Mild inhibition (using CPMM as a control))"}, {"measurement": "EC50", "setting": "[11]; [23]", "value": "> 100", "unit": "nM"}, {"measurement": "EC50", "setting": "[11]; read-out: EC50 (Cortisol)", "value": "> 10", "unit": "nM"}, {"measurement": "After the infusion is stopped: Righting reflex recovery time", "setting": "[12]; [24]", "value": "8 to 10", "unit": "min"}, {"measurement": "Recovery time after stopping infusion", "setting": "[12]; [24]", "value": "10 to 15", "unit": "min"}, {"measurement": "Types and incidence of adverse reactions: Hindlimb rigidity", "setting": "[12]; [21]", "value": "Hindlimb rigidity(4/6)"}, {"measurement": "Types and incidence of adverse reactions: Red urine", "setting": "[12]; [21]", "value": "6/6"}, {"measurement": "Types and incidence of adverse reactions: Tremor", "setting": "[12]; [21]", "value": "4/6"}, {"measurement": "Sedation onset time", "setting": "[12]; [25]", "value": "<5", "unit": "min"}, {"measurement": "Onset time", "setting": "[13]", "value": "0.26 ± 0.08", "unit": "min"}, {"measurement": "Righting reflex duration", "setting": "[13]", "value": "1.62 ± 0.63", "unit": "min"}, {"measurement": "ED50", "setting": "[14]; [22]", "value": "0.78(0.74-0.82)* mg/kg"}, {"measurement": "Approximate therapeutic index", "setting": "[14]; rats", "value": ">10"}, {"measurement": "Minimal lethal dose", "setting": "[14]; rats", "value": ">7.8", "unit": "mg/kg"}, {"measurement": "Recovery time after stopping infusion", "setting": "[15]; LORR maintained for 1 hour, 2 times the MIR", "value": "7 to 8", "unit": "min"}, {"measurement": "Onset time", "setting": "[15]; continuous infusion, 2 times the MIR", "value": "3 to 4", "unit": "min"}, {"measurement": "Types and incidence of adverse reactions", "setting": "[15]; continuous infusion, (animals affected/animals)", "value": "Convulsions(3/6),; also recorded: Tremor(5/6),; also recorded: Myoclonus(5/6),"}, {"measurement": "ED50", "setting": "[16]; [17]", "value": "0.49(0.45-0.53)* mg/kg"}, {"measurement": "Approximate therapeutic index", "setting": "[16]", "value": 42.0}]}
